Experimental data from ChEMBL document CHEMBL6121036, “Evaluation of Cereblon-Directing Warheads for the Development of Orally Bioavailable PROTACs” (J Med Chem, 2025).
Converted amounts (≈) assume the structure as drawn. Each block holds one compound with its values, some of them ahead of it. The source made the active and inactive calls. No cut-off for these calls is given here.

Experiments:
[1] = Permeability in human MV4-11 cells assessed as cell availability index relative to lenalidomide; type: ADME, cell-based
[2] = Chemical stability in human MV4-11 cell culture media assessed as half life; type: physicochemical
[3] = Chemical stability in human HD-MB03 cell culture media assessed as half life; type: physicochemical
[4] = biological target: T1, Protein cereblon/Bromodomain-containing protein 4 (Homo sapiens, UniProt O60885+Q96SW2); test: PROTAC activity at CRBN/Hibit-tagged BRD4 (unknown origin) expressed in HEK293 cells co-expressing LgBiT assessed as degradation of BRD4 incubated for 24 hrs by […] glo-max assay; type: cell-based
[5] = biological target: T1, Protein cereblon/Bromodomain-containing protein 4; test: PROTAC activity at CRBN/Hibit-tagged BRD4 (unknown origin) expressed in HEK293 cells co-expressing LgBiT assessed as degradation of BRD4 incubated for 24 hrs by […] glo-max assay relative to control; type: cell-based
[6] = biological target: T1, Protein cereblon/Bromodomain-containing protein 4; test: PROTAC activity at CRBN/Hibit-tagged BRD4 (unknown origin) expressed in HEK293 cells co-expressing LgBiT assessed as degradation rate incubated for 24 hrs by […] glo-max assay; type: cell-based
[7] = test system: MV4-11; test: Cytotoxicity against human MV4-11 cells assessed as reduction in cell viability incubated for 72 hrs by cell-titer glo assay; type: functional, cell-based; details: MV4-11, 72 h
[8] = test system: HD-MB03; test: Cytotoxicity against human HD-MB03 cells assessed as reduction in cell viability incubated for 72 hrs by cell-titer glo assay; type: functional, cell-based; details: HD-MB03, 72 h
[9] = Kinetic aqueous solubility of the compound at pH 7.4; type: physicochemical; details: read-out: Kinetic_solubility
[10] = Metabolic stability in mouse liver microsomes assessed as half life; type: ADME, Microsome; details: liver microsomes
[11] = biological target: T2, Protein cereblon/Bromodomain-containing protein 4/DNA damage-binding protein 1 (Homo sapiens) (UniProt O60885+Q96SW2+Q16531); test: Binding affinity to his-tagged CRBN/DDB1/GST-tagged BRD4 (49 to 170 residues)(unknown origin) assessed as ternary complex formation (AUC) incubated for 1 hr by luminescence based Alphascreen assay; type: protein assay
[12] = test system: HEK293; test: Cytotoxicity against HEK293 cells expressing LgBiT fused HiBiT-BRD2 measured after 24 hrs by cell titer-glo assay; type: toxicity, cell-based; details: human, hek293, 24 h
[13] = biological target: T2, Protein cereblon/Bromodomain-containing protein 4/DNA damage-binding protein 1 (Homo sapiens); test: Binding affinity to his-tagged CRBN/DDB1/GST-tagged BRD4 (49 to 170 residues)(unknown origin) assessed as ternary complex formation by measuring AUC incubated for 1 hr by luminescence based Alphascreen assay; type: protein assay
[14] = Clearance in female CD1 mouse at 3 mg/kg, iv measured upto 24 hrs by LC-MS/MS analysis; type: ADME, organism-based; details: in vivo
[15] = Terminal elimination half life in female CD1 mouse at 3 mg/kg, iv measured upto 24 hrs by LC-MS/MS analysis; type: ADME, organism-based; details: in vivo, read-out: beta t1/2 (converted)
[16] = AUC in female CD1 mouse at 3 mg/kg, iv measured upto 24 hrs by LC-MS/MS analysis; type: ADME, organism-based; details: in vivo
[17] = Volume of distribution in female CD1 mouse at 3 mg/kg, iv measured upto 24 hrs by LC-MS/MS analysis; type: ADME, organism-based; details: in vivo
[18] = Cmax in female CD1 mouse at 10 mg/kg, po measured upto 24 hrs by LC-MS/MS analysis; type: ADME, organism-based; details: in vivo
[19] = Oral bioavailability in female CD1 mouse at 10 mg/kg measured upto 24 hrs by LC-MS/MS analysis; type: ADME, organism-based; details: in vivo
[20] = biological target: T1, Protein cereblon/Bromodomain-containing protein 4; test: PROTAC activity at CRBN/BRD4 in human MV4-11 cells assessed as degradation of BRD4 incubated for 4 hrs by immunoblot analysis; type: cell-based
[21] = biological target: Protein cereblon/Bromodomain-containing protein 2 (Homo sapiens) (UniProt P25440+Q96SW2); test: PROTAC activity at CRBN/BRD2 in human MV4-11 cells assessed as degradation of BRD2 incubated for 4 hrs by immunoblot analysis relative to control; type: cell-based
[22] = biological target: Protein cereblon/Bromodomain-containing protein 3 (Homo sapiens) (UniProt Q15059+Q96SW2); test: PROTAC activity at CRBN/BRD3 in human MV4-11 cells assessed as degradation of BRD3 incubated for 4 hrs by immunoblot analysis relative to control; type: cell-based
[23] = test system: MV4-11; test: Downregulation of c-Myc level in human MV4-11 cells measured after 4 hrs by immunoblot analysis; type: functional, cell-based
[24] = test system: MV4-11; test: Upregulation of p53 level in human MV4-11 cells measured after 4 hrs by immunoblot analysis; type: functional, cell-based
[25] = biological target: Protein cereblon (Homo sapiens) (UniProt Q96SW2); test: Binding affinity to CRBN (unknown origin)
[26] = Chemical stability in human MV4-11 cell culture media at 400 uM measured upto 72 hrs by UPLC analysis; type: physicochemical
[27] = Chemical stability in human HD-MB03 cell culture media at 400 uM measured upto 72 hrs by UPLC analysis; type: physicochemical
[28] = Effect on BRD3 level in human MV4-11 cells assessed as fold change at 100 nM measured after 4 hrs; type: functional
[29] = Effect on BRD4 level in human MV4-11 cells assessed as fold change at 100 nM measured after 4 hrs; type: functional
[30] = Effect on BRD2 level in human MV4-11 cells assessed as fold change at 100 nM measured after 4 hrs; type: functional
[31] = Effect on MYC level in human MV4-11 cells assessed as fold change at 100 nM measured after 4 hrs; type: functional
[32] = Effect on FYTTD1 level in human MV4-11 cells assessed as fold change at 100 nM measured after 4 hrs; type: functional
[33] = Effect on CCNF level in human MV4-11 cells assessed as fold change at 100 nM measured after 4 hrs; type: functional
[34] = Effect on CDC42EP3 level in human MV4-11 cells assessed as fold change at 100 nM measured after 4 hrs; type: functional
[35] = Effect on MCL1 level in human MV4-11 cells assessed as fold change at 100 nM measured after 4 hrs; type: functional
[36] = Effect on PLAU level in human MV4-11 cells assessed as fold change at 100 nM measured after 4 hrs; type: functional
[37] = Effect on ZFP36L2 level in human MV4-11 cells assessed as fold change at 100 nM measured after 4 hrs; type: functional
[38] = Effect on FGL2 level in human MV4-11 cells assessed as fold change at 100 nM measured after 4 hrs; type: functional
[39] = Effect on NSA2 level in human MV4-11 cells assessed as fold change at 100 nM measured after 4 hrs; type: functional
[40] = Effect on CCND3 level in human MV4-11 cells assessed as fold change at 100 nM measured after 4 hrs; type: functional
[41] = Effect on AURKA level in human MV4-11 cells assessed as fold change at 100 nM measured after 4 hrs; type: functional
[42] = Effect on NOP53 level in human MV4-11 cells assessed as fold change at 100 nM measured after 4 hrs; type: functional
[43] = Effect on PLK1 level in human MV4-11 cells assessed as fold change at 100 nM measured after 4 hrs; type: functional
[44] = Effect on RNF166 level in human MV4-11 cells assessed as fold change at 100 nM measured after 4 hrs; type: functional
[45] = Effect on ZBTB21 level in human MV4-11 cells assessed as fold change at 100 nM measured after 4 hrs; type: functional
[46] = Effect on TP53 level in human MV4-11 cells assessed as fold change at 100 nM measured after 4 hrs; type: functional
[47] = Permeability in MDCK-II cells incubated for 1 hr by UPLC/MS/UV analysis; type: ADME, cell-based, Canis lupus familiaris; details: dog, read-out: permeability
[48] = Stability in mouse plasma assessed as half life by UPLC-MS/MS analysis; type: ADME, cell-free
[49] = AUC last in female CD1 mouse at 10 mg/kg, po measured upto 24 hrs by LC-MS/MS analysis; type: ADME, organism-based; details: in vivo

Ratio [1]: 140
half-life [2]: 4.2 h
half-life [3]: 4.2 h
Compound: Cc1sc2c(c1C)C(c1ccc(Cl)cc1)=N[C@@H](CC(=O)NCCCCNC(=O)COc1cccc3c1C(=O)N(C1CCC(=O)NC1=O)C3=O)c1nnc(C)n1-2 (some centres undefined)

DC50 [4]: 0.19 nM
Emax [5]: 96.9%
Activity [6]: 0.292 fRLU/hr
solubility kinetic [9]: 48.4 µM (≈ 36.5 µg/mL)
half-life [10]: 1.3 h
clearance [14]: 8.85 mL/min/kg
half-life [15]: 3.4 h
AUC at 24 h [16]: 5540 ng·h/mL
Vd [17]: 0.85 L/kg
Cmax [18]: 2440 ng/mL
bioavailability [19]: 45%
DC50 [20]: 0.127 nM
Activity [21]: > 90%
Activity [22]: > 90%
Activity [25]: Active
Stability [26]: Stable
Stability [27]: Stable
Papp at 1 h [47]: 1.7 ×10⁻⁶ cm/s
half-life [48]: 7.3 h
AUC(0-t) at 24 h [49]: 8060 ng·h/mL
Compound: Cc1sc2c(c1C)C(c1ccc(Cl)cc1)=N[C@@H](CC(=O)N1CCC(CN3CCN(c4ccc(C5CCC(=O)NC5=O)cc4)CC3)CC1)c1nnc(C)n1-2 (some centres undefined)
IC50 [7]: 0.12 nM
IC50 [8]: 0.92 nM
Activity [11]: Active
Activity [12]: Non-toxic
AUC [13]: 281000
Activity [23]: Active
Activity [24]: Active
fold change (FC) [28]: -3.85
fold change (FC) [29]: -3.85
fold change (FC) [30]: -3.52
fold change (FC) [31]: -2.05
fold change (FC) [32]: -1.67
fold change (FC) [33]: -1.13
fold change (FC) [34]: -1.38
fold change (FC) [35]: -1.21
fold change (FC) [36]: -1.2
fold change (FC) [37]: -1.18
fold change (FC) [38]: -1.16
fold change (FC) [39]: -1.05
fold change (FC) [40]: -0.99
fold change (FC) [41]: -0.97
fold change (FC) [42]: -0.91
fold change (FC) [43]: -0.81
fold change (FC) [44]: -0.12
fold change (FC) [45]: -0.15
fold change (FC) [46]: 1.92
